According to paper PMC4871512, “Drug-Based Lead Discovery: The Novel Ablative Antiretroviral Profile of Deferiprone in HIV-1-Infected Cells and in HIV-Infected Treatment-Naive Subjects of a Double-Blind, Placebo-Controlled, Randomized Exploratory Trial” (PLoS ONE, 2016):

How the values were obtained:
[1] = Proof-of-concept trial: safety and tolerability
Procedure: Since we were dosing a population with previously untested tolerance for deferiprone, the exploratory trial of this orally administered drug was conducted under uninterrupted medical observation and standardized conditions, e.g. uniform diet to minimize confounding food effects, in a specialized in-patient research unit for Phase I protocols. In-unit supervision lasted for the entire one-week duration of deferiprone ingestion (first stage of protocol S1 in Fig 6), which was intentionally restricted to the oral intake of in total just 17 doses. After discharge from the research unit, outpatient follow-up occurred at 4 weeks and 8 weeks (second stage of protocol S2 in Fig 6). […] Using drug toxicity grading criteria proposed by NIH [97, 98], we defined the following tolerability profile:
Eligible for enrollment were volunteers of both genders, between 18 and 60 years old, healthy or HIV-infected with CD4 count ≥ 300/mm^3, viral load of ≥ 10,000 copies/ml, and absence of active infectious disease; AIDS-defining condition; febrile illness; liver or kidney disease; hypersensitivity to test material; and medication requirement. The protocol involved a screening visit; a pharmacokinetic and antiretroviral study requiring admission to a specialized Phase I research unit for a week of on-drug treatment, with multiple blood draws from a peripheral vein after oral intake of the first deferiprone dose, either 33 mg/kg or 50 mg/kg, and at least three repeat blood draws (first stage of protocol); an off-drug observation period of eight weeks, which comprised at least two repeat visits (second stage of protocol); and an exit visit. Enrollment complied with the applicable standard-of-care specified in the ‘Clinical Guidelines for the Management of HIV & AIDS in Adults and Adolescents’, National Department of Health, Republic of South Africa. Primary parameters included safety and tolerability (e.g. vital signs, laboratory variables, cardiac monitoring by ECG) and antiretroviral activity (e.g. RNA copies of HIV-1). Secondary parameters included pharmacokinetic variables (e.g. peak serum concentration) in serum, drawn from a peripheral vein at fixed times (0, 0.5, 1, 1.5, 2, 3, 4, 6, 9, 12) after the ingestion of the first dose on Day 1 of the study. The concentration of the nonconjugated, chelation-competent form of deferiprone in serum was determined by UV detection at 280 nm, after separation via reversed-phase HPLC under isocratic conditions. The lower limit of deferiprone quantitation was 1.466 μM, or 0.204 μg/ml. HIV-1 RNA was measured as described and used as log10-transformed parameter in all calculations.
26 consecutive subjects were randomly enrolled in the IRB-approved proof-of-concept trial and gave written informed consent to be studied (Supporting Information, S2 Text); recruitment of trial subjects commenced in November 2006 and follow-up terminated in April 2008. Double-blind enrollment comprised i) 18 HIV-infected, asymptomatic and—according to the applicable standard-of-care [74]–cART-ineligible individuals, who either received placebo (N = 4 [Protocol Group 4]) or deferiprone (Ferriprox®) administered orally every 8 hours in three equal doses under medical supervision, totaling initially either 99 mg/kg/day (N = 7 [Protocol Group 1]) or subsequently 150 mg/kg/day (N = 7 [Protocol Group 3]); and ii) 8 uninfected individuals either on placebo (N = 2 [Protocol Group 5]) or daily deferiprone (N = 6; 150 mg/kg/day [Protocol Group 2]); CD4 cells were quantified before, during, and at the end of the one-week treatment period. […] Visually identical tablets of deferiprone / placebo were administered once on Days 1 and 7, and thrice on Days 2–6 of protocol.

[2] = tested on: HIV-1 clinical isolate in PBMCs; test: p24 core antigen ELISA in supernatant of isolate-infected, long-term replenished primary cell cultures; assay type: cell-based; settings: for p24, level relative to untreated controls: after two weeks, stably infected replenished primary cell cultures
Procedure: Cell-free supernatants were used for p24 and HIV-1 RNA measurements. p24 core antigen in the supernatant was quantified by ELISA (Retrotek HIV-1 p24®; ZeptoMetrix Corp.; Buffalo, NY). HIV-1 RNA copy number in the supernatant of PBMC cultures and in plasma of trial subjects enrolled in the exploratory deferiprone trial was determined with a PCR-based and FDA-approved assay (Amplicor HIV-1 Monitor®; Roche Diagnostics Corp.; Indianapolis, IN). For clinical samples, the assay was used per the Standard Specimen Processing Procedure (sensitivity limit 400 copies/ml); for cell culture samples, the assay was used in both the Standard Specimen Processing and the UltraSensitive Specimen Processing Procedure (sensitivity limit 50 copies/ml). If not specified further, the term “log10” designates the amount of HIV-1 RNA in the dimensions [log10 / ml]. The Roche Amplicor HIV-1 DNA Test (Roche Diagnostics Corp.; Indianapolis, IN) was used for detection of HIV-1 DNA with the primer pair SK431/462, which amplifies a highly conserved region of the gag genome of HIV-1 subtype B DNA. Results are shown per the assay’s optical readings of a chromogenic reaction that relates absorbance at 450 nm to the HIV-1 DNA copy number and is calibrated by assay-internal copy controls (A450 < 0.350, HIV-1 DNA absent; A450 ≥ 3.0, HIV-1 DNA present in excess of 20 copies; A450 between 0.350 and 3.0, HIV-1 DNA copy number per copy controls). Apoptotic DNA fragmentation was quantified flow-cytometrically, using a terminal deoxynucleotide transferase dUTP nick end-labeling (TUNEL) assay (APO-BRDU™; Phoenix Flow Systems; San Diego, CA). All experiments and assays were performed at least in duplicate.
The antiretroviral activity of deferiprone was tested in primary cultures of PBMCs, infected in vitro with clinical isolate or mock-infected with clinical isolate-identical cell- and virus-free medium as described. Briefly, to approximate the bi-compartmental mode of HIV-1 infection in vivo, which comprises a cell-generative compartment that provides non-infected but HIV-1 susceptible cells, and an HIV-generative compartment in which they become infected, the cultures were replenished as described with freshly obtained uninfected primary cells and medium at regular intervals, assuring identical cell number in both the treated and control cultures by computerized trypan blue exclusion analysis (Vi-CELL™; Beckman Coulter, Miami, FL); deferiprone concentrations were adjusted as indicated. This model allowed for months-long monitoring of HIV-1 parameters in productively infected cultures.

## Cc1c(O)c(=O)ccn1C [deferiprone, 3-hydroxy-1,2-dimethylpyridin-4-one]
[1]; 99 mg group
  enrollees who completed the study: 86%
[1]; 99 mg group, N = 7 HIV-infected, end of the treatment week
  persons with elevations of transaminases and γ-glutamyl transpeptidase: 2
[1]; 99 mg group, the 2 affected persons
  grade of transaminase elevations: Grade 3 and Grade 2
[1]; 99 mg group, the 2 affected persons, respectively
  grade of γ-glutamyl transpeptidase elevations: Grade 1 and Grade 2
[1]; 150 mg group overall, N = 13
  enrollees who completed the study: 61%
[1]; 150 mg group, HIV-uninfected
  persons with a rise in serum liver enzymes: 2 of 6
[1]; 150 mg group, Subject 22 (cmax 285 μM), medication discontinued on Day 3
  hematologic adverse event: agranulocytosis (Grade 4 absolute neutrophil count)
[1]; 150 mg group, Subject 22 and Subject 24
  grade of γ-glutamyl transpeptidase elevation: Grade 2
[1]; 150 mg group, asymptomatic HIV-infected
  persons with a rise in serum liver enzymes: 4 of 7
[1]; 150 mg group, the four affected HIV-infected persons
  grade of transaminase elevations: three Grade 2 and one Grade 4
[1]; 150 mg group, those with HIV infection
  protocol completion: 57%
[1]; HIV-uninfected persons on 150 mg/day, Subject 9 and Subject 12
  rise in serum liver enzymes, grade: Grade 1 transaminase elevation
[1]; Subject 22
  spontaneous correction of the neutrophil count: within two weeks off-drug
[1]; Subject 22 and Subject 24
  spontaneous correction of the liver function abnormality: within one week off-drug
[1]; Subject 317, 150 mg group, Grade 2 QTc prolongation
  heart rate-corrected QT interval on-drug: 491 ms
[1]; Subject 317, 150 mg group, baseline 441 ms, first stage, judged likely not causally linked
  increase of heart rate-corrected QT interval: 50 ms
[1]; Subject 317, several days after the end of drug intake
  off-drug rate-corrected QT interval: up to 488 ms
[1]; in vivo
  effect of dose increase on tolerability: markedly reduced the tolerability
[1]; one HIV-uninfected person, at 6 and 8 days after the end of deferiprone treatment
  neurological adverse event: convulsive episodes
[2]; 50 μM for 30 days followed by escalation to 200 μM (data not shown)
  p24 after escalation of concentration: complete suppression of p24 within one week
[2]; 100 μM deferiprone
  p24 on-drug: declined to the limit of detectability
  p24, level relative to untreated controls: ≤ 10%
[2]; 200 μM deferiprone
  p24, level relative to untreated controls: ≤ 10%
[2]; after 100 μM deferiprone
  extracellular p24 after deferiprone withdrawal: increased rapidly to levels higher than pre-treatment
[2]; after 200 μM deferiprone
  p24 off-drug: did not rebound off-drug
[2]; below 100 μM deferiprone
  p24 expression: only marginally affected
